Source: PubChem BioAssay AID330 (DTP/NCI, 2004)
“And” between values parts separate entries of the source, which are not always exact repeats. Equal values may be shown once. Inconclusive results and toxic doses are left out.

Tested on: P388 leukemia ip, CD2F1 mice, survival T/C
Experiment: NCI In Vivo Anticancer Drug Screen. Data for tumor model P388 Leukemia (intraperitoneal) in CD2F1 (CDF1) mice
Settings: endpoint: median survival time, higher = longer survival
Summary of the method: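 Mice carrying the transplanted tumor received test compound or vehicle. Survival was recorded in each group, and the value is the treated-group measurement divided by that of the vehicle-treated control group.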

[1] = dose: 60.0 mg/kg/injection, schedule: Q01DX005 (ip), vehicle: saline with Tween-80
[2] = dose: 120.0 mg/kg/injection, schedule: Q01DX005 (ip), vehicle: saline with Tween-80
[3] = dose: 50.0 mg/kg/injection, schedule: Q01DX009 (ip), vehicle: saline
[4] = dose: 100.0 mg/kg/injection, schedule: Q01DX009 (ip), vehicle: saline
[5] = dose: 50.0 mg/kg/injection, schedule: Q01DX005 (ip), vehicle: saline with Tween-80
[6] = dose: 100.0 mg/kg/injection, schedule: Q01DX005 (ip), vehicle: saline with Tween-80
[7] = dose: 200.0 mg/kg/injection, schedule: Q01DX005 (ip), vehicle: saline with Tween-80

CCc1nc(N)nc(N)c1-c1ccc(Cl)c(S(=O)(=O)O)c1 was tested, and the T/C [1] was 103 % of control, the T/C [2] was 98 % of control and the T/C (dose: 240.0 mg/kg/injection, schedule: Q01DX005 (ip), vehicle: saline with Tween-80) was 98 % of control.
With NC(N)=N/N=C/c1ccc(Cl)cc1Cl the T/C (dose: 25.0 mg/kg/injection, schedule: Q01DX009 (ip), vehicle: saline) was 104 % of control and the T/C [3] was 106 % of control.
With O=c1c2sc3ccccc3c2ncn1/N=C/c1ccc(Cl)cc1 the T/C (dose: 50.0 mg/kg/injection, schedule: Q01DX005 (ip), vehicle: Klucel (hydroxypropylcellulose) (HPC)) was 105 % of control, the T/C (dose: 100.0 mg/kg/injection, schedule: Q01DX005 (ip), vehicle: Klucel (hydroxypropylcellulose) (HPC)) was 96 % of control and the T/C (dose: 200.0 mg/kg/injection, schedule: Q01DX005 (ip), vehicle: Klucel (hydroxypropylcellulose) (HPC)) was 88 % of control.
In the case of O=c1n[n+]([O-])ccn1C1OC(CO)C(O)C1O (stereo not given), the T/C [3] is reported as 119 % of control and 123 % of control, the T/C [4] is reported as 106 % of control and the T/C (dose: 300.0 mg/kg/injection, schedule: Q01DX009 (ip), vehicle: saline) is reported as 169 % of control and 170 % of control. For the same compound, the T/C (dose: 450.0 mg/kg/injection, schedule: Q01DX009 (ip), vehicle: saline) was 96 % of control.
CN(C)CCN(Cc1ccc(Cl)s1)c1ccccn1 was tested, and the T/C (dose: 50.0 mg/kg/injection, schedule: Q01DX005 (ip), vehicle: saline) was 101 % of control and the T/C (dose: 100.0 mg/kg/injection, schedule: Q01DX005 (ip), vehicle: saline) was 99 % of control.
[Na+] was tested, and the T/C [3] was 95 % of control, the T/C [4] was 100 % of control and the T/C (dose: 200.0 mg/kg/injection, schedule: Q01DX009 (ip), vehicle: saline) was 98 % of control. The T/C (dose: 0.5 % in 0.5 ml injection vol, schedule: Q01DX009 (ip), vehicle: water) was 105 % of control and 96 % of control, the T/C (dose: 1.0 % in 0.5 ml injection vol, schedule: Q01DX009 (ip), vehicle: water) was 100 % of control and 96 % of control and the T/C (dose: 2.0 % in 0.5 ml injection vol, schedule: Q01DX009 (ip), vehicle: water) was 102 % of control and 106 % of control. The T/C (dose: 3.12 % in 0.5 ml injection vol, schedule: Q01DX009 (ip), vehicle: water) was 101 % of control and 92 % of control, the T/C (dose: 4.0 % in 0.5 ml injection vol, schedule: Q01DX009 (ip), vehicle: water) was 100 % of control and 90 % of control and the T/C (dose: 6.25 % in 0.5 ml injection vol, schedule: Q01DX009 (ip), vehicle: water) was 108 % of control and 114 % of control. For the same compound, the T/C (dose: 8.0 % in 0.5 ml injection vol, schedule: Q01DX009 (ip), vehicle: water) was 99 % of control and 104 % of control and 108 % of control.
In the case of CC(NNC(=S)N1CCCC1)c1cccc[n+]1[O-] (stereo not given), the T/C [5] is reported as 101 % of control, the T/C [6] is reported as 100 % of control and the T/C [7] is reported as 94 % of control.
OCC1OC(O)C(N=C/C=C/c2ccccc2)C(O)C1O (stereo not given) was tested, and the T/C [5] was 104 % of control, the T/C [6] was 117 % of control and the T/C [7] was 115 % of control.
For S1SSSSSSS1, the T/C (dose: 8.0 mg/kg/injection, schedule: Q01DX005 (ip), vehicle: Klucel (hydroxypropylcellulose) (HPC)) was 103 % of control, the T/C (dose: 16.0 mg/kg/injection, schedule: Q01DX005 (ip), vehicle: Klucel (hydroxypropylcellulose) (HPC)) was 106 % of control and the T/C (dose: 32.0 mg/kg/injection, schedule: Q01DX005 (ip), vehicle: Klucel (hydroxypropylcellulose) (HPC)) was 104 % of control. The T/C (dose: 64.0 mg/kg/injection, schedule: Q01DX005 (ip), vehicle: Klucel (hydroxypropylcellulose) (HPC)) was 100 % of control.
In the case of COC/C(Br)=C\SC#N (tested in a mixture with another compound), the T/C (dose: 3.75 mg/kg/injection, schedule: Q01DX005 (ip), vehicle: saline with Tween-80) is reported as 120 % of control and the T/C (dose: 7.5 mg/kg/injection, schedule: Q01DX005 (ip), vehicle: saline with Tween-80) is reported as 122 % of control.
In the case of CC(C)(C)c1cc(C(C)(C)C)c2[n+]([O-])ssc1-2, the T/C (dose: 15.0 mg/kg/injection, schedule: Q01DX005 (ip), vehicle: saline with Tween-80) is reported as 120 % of control, the T/C (dose: 30.0 mg/kg/injection, schedule: Q01DX005 (ip), vehicle: saline with Tween-80) is reported as 108 % of control and the T/C [1] is reported as 113 % of control and 95 % of control. The T/C [2] was 97 % of control.
With CC(=O)NCc1cc(C)c(CBr)cc1CBr the T/C (dose: 0.78 mg/kg/injection, schedule: Q01DX009 (ip), vehicle: distilled water + Tween-80) was 103 % of control, the T/C (dose: 1.56 mg/kg/injection, schedule: Q01DX009 (ip), vehicle: distilled water + Tween-80) was 107 % of control and the T/C (dose: 3.12 mg/kg/injection, schedule: Q01DX009 (ip), vehicle: distilled water + Tween-80) was 109 % of control. The T/C (dose: 6.25 mg/kg/injection, schedule: Q01DX009 (ip), vehicle: distilled water + Tween-80) was 116 % of control and the T/C (dose: 12.5 mg/kg/injection, schedule: Q01DX009 (ip), vehicle: distilled water + Tween-80) was 93 % of control.
